Patent US20250282828A1, “PEPTIDES FOR THE TREATMENT OF RESPIRATORY INFECTIONS OF VIRAL ORIGIN” (CENTRO DE INGENIERÍA GENÉTICA Y BIOTECNOLOGÍA, priority 2020, published 2025)
pKd: −log10 of the molar value. Like-named read-outs stand apart in the source and are kept apart here. Non-standard residues stand in square brackets, D forms with d. Residues, ends and D or L forms follow the SMILES beside them. No end group written: not given here.

Columns and labels:
Influenza A H1N1 = assay type: cell-based; conditions: 50 μM; tracheo-bronchial HAE
[1] = tested on: herpes simplex virus type 1 (HSV-1); assay: HSV-1 replication in primary explants of human nasal mucosa (qPCR); assay type: cell-based; conditions: 36 hours
Protocol: The replication of herpes simplex virus type 1 (HSV-1) was performed in primary explants of human nasal mucosa, according to Glorieux et al. (Glorieux et al. 2011, PLoS ONE, 6(7): e22160, doi: 10.1371/journal.pone.0022160). […] Afterwards, the cultures were washed and kept at 37° C. and 5% CO2 for 36 hours, in presence of the peptides in culture medium. The cultures were harvested, and HSV-1 was quantified by qPCR. The percentages of viral inhibition ranged from 70 to 92% in presence of the peptides (Table 5).

[2] = tested on: respiratory syncytial virus (RSV); assay: Respiratory syncytial virus replication in bronchial HAE (RT-qPCR); assay type: cell-based; conditions: 50 μM, 10 days
SARS-CoV-2 [3] = tested on: SARS-CoV-2
AdV 7 Gomen strain = assay: Adenovirus type 7 replication in bronchial HAE (qPCR); assay type: cell-based; conditions: 50 μM, 24 hours
human bocavirus (HBoV) = assay: Human bocavirus replication in tracheal HAE (qPCR NS1 region); assay type: cell-based; conditions: 50 μM, 72 hours
SARS-CoV-2 [4] = tested on: SARS-CoV-2; remark: listed apart in the source
ZIKV E protein (Zika) = target: T1, ZIKV E protein (Zika) (Zika virus, UniProt A0A024B7W1); assay: BIACORE surface plasmon resonance interaction with immobilized peptide; assay type: binding
T1 construct: the envelope protein of the Zika virus (ZIKV E)

[5] = tested on: Parainfluenza virus type 3 (HPIV3); assay type: cell-based; conditions: 50 μM; HAE, 3 days
Protein N (SARS-CoV-2) = Protein N (SARS-CoV-2) (Severe acute respiratory syndrome coronavirus 2, UniProt P0DTC9); assay: BIACORE surface plasmon resonance interaction with immobilized peptide; assay type: binding; conditions: analyte 10-200 nM
NS1-D2 (Dengue) = target: T2, NS1-D2 (Dengue) (Dengue virus type 2, UniProt P29990); assay: as above; assay type: binding, Dengue virus 2
T2 construct: the non-structural protein 1 of the Dengue virus 2 (NS1-D2)

Dengue 2 virus = Dengue 2 virus replication in primary cultures of lung cells (PFU in VeroE6); assay type: cell-based; conditions: 48 hours
Protocol: The cultures were treated with the peptides for 2 or 24 hours, at concentrations of 0.01 to 100 μM before viral challenge. The medium was discarded and the cells were infected with Dengue 2 virus, at an MOI of 10 for 2 hours at 37° C. and 5% CO2. The virus was eliminated, a wash was then performed and the cultures were treated again with peptides in DMEM medium, and incubated for 48 hours at 37° C. and 5% CO2. Subsequently, the cultures were collected to assess viral performance on VeroE6 cells. For this, the cells were seeded in 24-well plates and when they reached confluence they were infected with serial 10-fold dilutions of the supernatants, incubated for 1 hour at 37° C. and 5% CO2. Next, a wash was carried out with PBS, and a layer of agar in 2× DMEM (1:1) added. The layer was allowed to solidify and incubated for 48 hours at 37° C. 5% CO2. The plates were stained with crystal violet, for the determination of the number of PFUs. The peptides inhibited between 68 and 88% of viral replication (Table 5).

[6] = target: T3, Dengue 2 virus capsid protein (Dengue virus type 2, UniProt P29990); assay: BIACORE surface plasmon resonance interaction with immobilized peptide; assay type: binding
T3 construct: with the Dengue 2 virus capsid protein

[7] = tested on: capsid protein of the Influenza H1N1 virus; assay: as above; assay type: binding

T3 sequence (P29990 1-100 limits assumed): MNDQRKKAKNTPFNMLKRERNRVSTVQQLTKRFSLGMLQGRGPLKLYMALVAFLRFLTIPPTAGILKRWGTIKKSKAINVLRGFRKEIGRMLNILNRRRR
T1 sequence (A0A024B7W1 291-794): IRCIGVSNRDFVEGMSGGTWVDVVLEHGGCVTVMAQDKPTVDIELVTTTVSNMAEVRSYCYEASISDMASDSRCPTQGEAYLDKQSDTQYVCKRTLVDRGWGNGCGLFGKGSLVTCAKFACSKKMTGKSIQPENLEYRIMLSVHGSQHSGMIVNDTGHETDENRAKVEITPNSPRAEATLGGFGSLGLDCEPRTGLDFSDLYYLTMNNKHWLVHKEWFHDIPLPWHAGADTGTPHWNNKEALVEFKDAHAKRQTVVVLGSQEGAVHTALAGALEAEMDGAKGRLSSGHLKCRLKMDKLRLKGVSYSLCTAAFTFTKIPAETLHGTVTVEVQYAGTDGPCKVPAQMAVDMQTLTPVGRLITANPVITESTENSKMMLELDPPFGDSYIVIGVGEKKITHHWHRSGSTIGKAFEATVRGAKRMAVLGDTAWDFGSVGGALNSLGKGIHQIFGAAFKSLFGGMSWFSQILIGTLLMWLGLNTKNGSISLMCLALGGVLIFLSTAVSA
T2 sequence (P29990 776-1127 limits assumed): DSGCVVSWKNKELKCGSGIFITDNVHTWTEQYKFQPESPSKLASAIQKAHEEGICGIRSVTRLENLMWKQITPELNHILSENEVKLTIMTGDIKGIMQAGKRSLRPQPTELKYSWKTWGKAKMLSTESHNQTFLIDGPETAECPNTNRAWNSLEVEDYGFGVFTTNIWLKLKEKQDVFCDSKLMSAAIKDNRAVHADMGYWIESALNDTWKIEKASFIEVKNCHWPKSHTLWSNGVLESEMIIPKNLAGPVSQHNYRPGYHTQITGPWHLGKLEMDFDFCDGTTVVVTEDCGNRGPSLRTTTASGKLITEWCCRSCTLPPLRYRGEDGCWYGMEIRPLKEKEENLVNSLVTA

CSCC[C@H](NC(=O)[C@H](CCC(N)=O)NC(=O)[C@@H](NC(=O)[C@@H](NC(=O)[C@H](CCCNC(=N)N)NC(C)=O)C(C)C)[C@@H](C)O)C(=O)N[C@H](CC(N)=O)C(=O)N[C@@H](CC(C)C)C(=O)N[C@@H](CC(N)=O)C(=O)N[C@@H](CC(=O)O)C(=O)N[C@@H](CCCNC(=N)N)C(=O)N[C@@H](CC(C)C)C(=O)N[C@@H](C)C(=O)N[C@@H](CO)C(=O)N[C@@H](CC(C)C)C(=O)N[C@@H](Cc1ccc(O)cc1)C(=O)N[C@@H](CC(=O)O)C(=O)N[C@@H](CCCCN)C(=O)N[C@H](C(=O)O)C(C)C [SEQ ID NO: 3] (Ac-RVTQM[dN]LNDRLASLYDKV-OH; C-terminus assumed)
Influenza A H1N1 Inhib. % (Influenza A H1N1): 93%
Herpes simplex HSV-1 Inhib. % ([1]; 50 μM): 73%
Sincitial respiratory virus Inhib. % [2]: 87%
Inhibition % (SARS-CoV-2 [3]; 96 h, 100 μM): 85.4%
Adenovirus Ad7 Inhib. % (AdV 7 Gomen strain): 82%
Bocavirus HBoV-1 Inhib. % (human bocavirus (HBoV)): 80%

CSCC[C@H](NC(=O)[C@H](CCC(N)=O)NC(=O)[C@@H](NC(=O)[C@@H](NC(=O)[C@H](CCCNC(=N)N)NC(C)=O)C(C)C)[C@@H](C)O)C(=O)N[C@@H](CC(N)=O)C(=O)N[C@@H](CC(C)C)C(=O)N[C@H](CC(N)=O)C(=O)N[C@@H](CC(=O)O)C(=O)N[C@@H](CCCNC(=N)N)C(=O)N[C@@H](CC(C)C)C(=O)N[C@@H](C)C(=O)N[C@@H](CO)C(=O)N[C@@H](CC(C)C)C(=O)N[C@@H](Cc1ccc(O)cc1)C(=O)N[C@@H](CC(=O)O)C(=O)N[C@@H](CCCCN)C(=O)N[C@H](C(=O)O)C(C)C [SEQ ID NO: 4] (Ac-RVTQMNL[dN]DRLASLYDKV-OH; C-terminus assumed)
Bronchial HAE Inhibition % (SARS-CoV-2 [4]; 72 h, 100 μM): 85%
Nasal HAE Inhibition % (SARS-CoV-2 [4]; 72 h, 100 μM): 80%
Inhibition % (SARS-CoV-2 [3]; 96 h, 100 μM): 92.4%

CSCC[C@H](NC(=O)[C@H](CCC(N)=O)NC(=O)[C@@H](NC(=O)[C@@H](NC(=O)[C@H](CCCNC(=N)N)NC(C)=O)C(C)C)[C@@H](C)O)C(=O)N[C@@H](CC(N)=O)C(=O)N[C@@H](CC(C)C)C(=O)N[C@@H](CC(N)=O)C(=O)N[C@H](CC(=O)O)C(=O)N[C@@H](CCCNC(=N)N)C(=O)N[C@@H](CC(C)C)C(=O)N[C@@H](C)C(=O)N[C@@H](CO)C(=O)N[C@@H](CC(C)C)C(=O)N[C@@H](Cc1ccc(O)cc1)C(=O)N[C@@H](CC(=O)O)C(=O)N[C@@H](CCCCN)C(=O)N[C@H](C(=O)O)C(C)C [SEQ ID NO: 5] (Ac-RVTQMNLN[dD]RLASLYDKV-OH; C-terminus assumed)
Inhibition % (SARS-CoV-2 [3]; 96 h, 100 μM): 85.3%

Ac-RVTQMNLNDRLASLYDKV [SEQ ID NO: 2]
pKd (ZIKV E protein (Zika)): 4.74
interaction (ZIKV E protein (Zika)): showed interaction
Influenza A H1N1 Inhib. % (Influenza A H1N1): 90%
Parainfluenza Type 3 Inhib. % [5]: 89%
pKd (Protein N (SARS-CoV-2)): 6.28
Bronchial HAE Inhibition % (SARS-CoV-2 [4]; 72 h, 50 μM): 90%
Nasal HAE Inhibition % (SARS-CoV-2 [4]; 72 h, 50 μM): 80%
interaction (NS1-D2 (Dengue)): showed interaction
Dengue 2 Inhib. % (Dengue 2 virus; 50 μM): 88%
Sincitial respiratory virus Inhib. % [2]: 83%
pKd [6]: 6.12
Inhibition % (SARS-CoV-2 [3]; 96 h, 50 μM): 95.1%
pKd [7]: 7.61
interaction [7]: showed interaction

NDRLASLYDKV [SEQ ID NO: 14]
pKd (ZIKV E protein (Zika)): 5.49
interaction (ZIKV E protein (Zika)): showed interaction
Influenza A H1N1 Inhib. % (Influenza A H1N1): 79%
pKd (Protein N (SARS-CoV-2)): 5.94
interaction (NS1-D2 (Dengue)): showed interaction
Dengue 2 Inhib. % (Dengue 2 virus; 50 μM): 70%
Sincitial respiratory virus Inhib. % [2]: 82%
pKd [6]: 5.23
Inhibition % (SARS-CoV-2 [3]; 96 h, 50 μM): 83.2%
pKd [7]: 5.33
interaction [7]: showed interaction

NLNDRLASLYDKV [SEQ ID NO: 15]
pKd (ZIKV E protein (Zika)): 7.20
interaction (ZIKV E protein (Zika)): showed interaction
Parainfluenza Type 3 Inhib. % [5]: 69%
pKd (Protein N (SARS-CoV-2)): 5.11
Bronchial HAE Inhibition % (SARS-CoV-2 [4]; 72 h, 50 μM): 90%
Nasal HAE Inhibition % (SARS-CoV-2 [4]; 72 h, 50 μM): 86%
Herpes simplex HSV-1 Inhib. % ([1]; 50 μM): 81%
interaction (NS1-D2 (Dengue)): showed interaction
pKd [6]: 5.90
Inhibition % (SARS-CoV-2 [3]; 96 h, 50 μM): 87.1%
Adenovirus Ad7 Inhib. % (AdV 7 Gomen strain): 78%
pKd [7]: 6.72
interaction [7]: showed interaction

RATQMNLNDRLASLYDKV [SEQ ID NO: 6]
Inhibition % (SARS-CoV-2 [3]; 96 h, 100 μM): 82.2%

RVTAMNLNDRLASLYDKV [SEQ ID NO: 7]
Influenza A H1N1 Inhib. % (Influenza A H1N1): 70%
Dengue 2 Inhib. % (Dengue 2 virus; 100 μM): 87%
Inhibition % (SARS-CoV-2 [3]; 96 h, 100 μM): 92.4%
Adenovirus Ad7 Inhib. % (AdV 7 Gomen strain): 69%

RVTQANLNDRLASLYDKV [SEQ ID NO: 8]
Parainfluenza Type 3 Inhib. % [5]: 73%
Bronchial HAE Inhibition % (SARS-CoV-2 [4]; 72 h, 100 μM): 92%
Nasal HAE Inhibition % (SARS-CoV-2 [4]; 72 h, 100 μM): 88%
Dengue 2 Inhib. % (Dengue 2 virus; 50 μM): 72%
Inhibition % (SARS-CoV-2 [3]; 96 h, 100 μM): 90.2%
Bocavirus HBoV-1 Inhib. % (human bocavirus (HBoV)): 87%

RVTQMNANDRLASLYDKV [SEQ ID NO: 9]
Influenza A H1N1 Inhib. % (Influenza A H1N1): 89%
Inhibition % (SARS-CoV-2 [3]; 96 h, 100 μM): 83.7%
Adenovirus Ad7 Inhib. % (AdV 7 Gomen strain): 79%
Bocavirus HBoV-1 Inhib. % (human bocavirus (HBoV)): 75%

RVTQMNLADRLASLYDKV [SEQ ID NO: 16]
Inhibition % (SARS-CoV-2 [3]; 96 h, 100 μM): 79.6%

RVTQMNLNARLASLYDKV [SEQ ID NO: 10]
Inhibition % (SARS-CoV-2 [3]; 96 h, 100 μM): 70.8%

RVTQMNLNDALASLYDKV [SEQ ID NO: 17]
Inhibition % (SARS-CoV-2 [3]; 96 h, 100 μM): 72.7%

RVTQMNLNDRAASLYDKV [SEQ ID NO: 21]
inhibition of SARS-CoV-2 in primary cultures of human airway epithelium (SARS-CoV-2 [4]): ≤ 20%
Inhibition % (SARS-CoV-2 [3]; 96 h, 100 μM): 25.5%

RVTQMNLNDRLAALYDKV [SEQ ID NO: 18]
Inhibition % (SARS-CoV-2 [3]; 96 h, 100 μM): 69.2%

RVTQMNLNDRLASLYAKV [SEQ ID NO: 12]
Inhibition % (SARS-CoV-2 [3]; 96 h, 100 μM): 77.4%

RVTQMNLNDRLASLYDAV [SEQ ID NO: 13]
Parainfluenza Type 3 Inhib. % [5]: 90%
Bronchial HAE Inhibition % (SARS-CoV-2 [4]; 72 h, 50 μM): 89%
Nasal HAE Inhibition % (SARS-CoV-2 [4]; 72 h, 50 μM): 79%
Herpes simplex HSV-1 Inhib. % ([1]; 50 μM): 78%
Sincitial respiratory virus Inhib. % [2]: 91%
Inhibition % (SARS-CoV-2 [3]; 96 h, 100 μM): 90.5%
Adenovirus Ad7 Inhib. % (AdV 7 Gomen strain): 76%

RVTQMNLNDRLVSLYDKV [SEQ ID NO: 11]
Inhibition % (SARS-CoV-2 [3]; 96 h, 100 μM): 73.9%

SEQ ID NO: 19: synthetic peptide related to SEQ ID NO: 1, obtained by solid phase synthesis (RVTQMNLNDRLASLYDKV; Description of the Artificial Sequence synthetic peptide where N6 is a D amino acid)
Influenza A H1N1 Inhib. % (Influenza A H1N1): 67%
Bronchial HAE Inhibition % (SARS-CoV-2 [4]; 100 µM): 86%
Nasal HAE Inhibition % (SARS-CoV-2 [4]; 100 µM): 82%
Dengue 2 Inhib. % (Dengue 2 virus; 50 μM): 68%
Sincitial respiratory virus Inhib. % [2]: 75%
Inhibition % (SARS-CoV-2 [3]; 50 µM): 91.8%
Bocavirus HBoV-1 Inhib. % (human bocavirus (HBoV)): 85%

SEQ ID NO: 20: synthetic peptide related to SEQ ID NO: 1, obtained by solid phase synthesis (RVTQMNLNDRLASLYDKV; Description of the Artificial Sequence synthetic peptide where N8 is a D amino acid)
Parainfluenza Type 3 Inhib. % [5]: 79%
Herpes simplex HSV-1 Inhib. % ([1]; 100 μM): 70%
Inhibition % (SARS-CoV-2 [3]; 50 µM): 69.8%
Bocavirus HBoV-1 Inhib. % (human bocavirus (HBoV)): 67%
